Data on 14 compounds can be found in patent US6358515B2, “Hydroquinone derivatives” (Senju Pharmaceutical Co., Ltd., priority 1997, dated 2002).

Each structure is given as a SMILES string.

Data set [1] has as its system Intraocular Pressure of Rabbit. The data set can be described thus: Intraocular pressure lowering effect in rabbits (eye drop instillation, tonometer). It counts as in vivo, Male Dutch rabbits. Particulars: for Intraocular pressure, 1 hr: 1 hr after instillation of 50 μl of 0.5% eye drops into the right eye; for Intraocular pressure, 1 hr / Intraocular pressure, 2 hr / Intraocular pressure, 3 hr / Intraocular pressure, 4 hr / Intraocular pressure, 0 hr: mean ± SD (n = 4-5); for Intraocular pressure, 2 hr: 2 hr after instillation of 50 μl of 0.5% eye drops into the right eye; for Intraocular pressure, 3 hr: 3 hr after instillation of 50 μl of 0.5% eye drops into the right eye; for Intraocular pressure, 4 hr: 4 hr after instillation of 50 μl of 0.5% eye drops into the right eye; for Intraocular pressure, 0 hr: initial value (0 hr) before instillation. How it is done: The present compound was tested for its intraocular pressure lowering effect.
Male Dutch rabbits of about 2.5 kg body weight were used in the test.
Intraocular pressure was measured by means of a contact type tonometer (ALCON Applanation Pneumatonograph) after instillation of oxybuprocaine hydrochloride [Anelocal (registered trademark) eye drops: SENJU Pharmaceutical Co., Ltd.] into both eyes of the rabbits for local anesthesia.
Eye drops were prepared each containing one of the test compounds at a concentration of 0.5% and 50 μl of it was instilled into the right eye. Intraocular pressure of both eyes was measured over time (0, 1, 2, 3, 4 hours). For analysis, Student t-test was conducted for the intraocular pressure measured at each time against the initial value.

Data set [2] deals with Blood Pressure of SHR Rat. The data set can be described thus: Effect on blood pressure of SHR rat (oral administration). It counts as in vivo, male SHR/Izm rats. Particulars: mean ± SD (n = 4-5); for Blood pressure, 1 hr: 1 hr after 30 mg/kg orally; for Blood pressure, 2 hr: 2 hr after 30 mg/kg orally; for Blood pressure, 3 hr: 3 hr after 30 mg/kg orally; for Blood pressure, 4 hr: 4 hr after 30 mg/kg orally; for Blood pressure, 0 hr: initial value (0 hr) before administration. The method, then:
The present compound was tested for its blood pressure lowering effect.
About 25-week old male SHR/Izm rats were used in the test.
Initial value of the blood pressure of rat tail vein was measured with a non-invasive automatic manometer for small animals, UR-5000 (UEDA Seisakusho), and then one of the test compounds 30 mg/kg was orally administered. Blood pressure was measured in the same manner 1, 2, 3 and 4 hours after administration. For analysis, Student t-test was conducted for the blood pressure measured at each time against the initial value.

Data set [3] in a line: Radical scavenging ability on the stable radical DPPH. Particulars: for IC50: DPPH radical; for Radical scavenging activity (in words) / Radical scavenging rate (%): DPPH; for Radical scavenging activity (in words): 1-1000 μM; for Radical scavenging rate (%): 20 minutes, absorbance at 517 nm. How it is done: The present compound was tested for its scavenging ability on a stable radical of 1,1-diphenyl-2-picrylhydrazide (DPPH).
The test was carried out according to the method described by Blois, M. S., Nature, 181: 1199 ([…]).
Each of the test compound was dissolved in purified water to prepare 10^−5-10^−2 M test solutions. To 300 μl each of the test solutions was added 2.7 ml of a […] solution of the stable radical, DPPH, in ethanol and stirred. The mixture was allowed to stand for 20 minutes, and absorbance at 517 nm was measured. Radical scavenging ability was determined for each of the test solutions according to the following equation.
Radical scavenging rate (%)=(Absorbance of control−Absorbance of test solution[…])×100
A general note: DPPH is a stable violet radical that fades when it is reduced.

The term melting point denotes the temperature of the solid-liquid transition. What is called IC50 is the point on the concentration scale where inhibition reaches its midpoint. A low value points to greater potency in that assay.

For the compound `COc1ccccc1N1CCN(CC(O)COc2ccc(O)c(C)c2)CC1.Cl.Cl` (stereo not shown), the melting point was 214 to 216 °C (dec.).

For the compound `COc1ccccc1N1CCN(CC(O)COc2cc(C)c(O)c3ccccc23)CC1` (stereo not shown) [Example 2, 1-(3-Methyl-4-hydroxynaphthoxy)-3-[4-(2-methoxyphenyl)-1-piperazinyl]propan-2-ol], in data set [1], the “Intraocular pressure, 1 hr” value was 21.8 ± 2.05^*1 mmHg; the “Intraocular pressure, 2 hr” value was 24.4 ± 1.82 mmHg; the “Intraocular pressure, 3 hr” value amounted to 25.8 ± 2.39 mmHg; the “Intraocular pressure, 4 hr” value was 26.6 ± 2.88 mmHg. Besides, the “Intraocular pressure, 0 hr” value in data set [1] is given as 25.2 ± 1.30 mmHg. Also, in data set [2], the “Blood pressure, 1 hr” value is recorded as 204.0 ± 17.6 mmHg; the “Blood pressure, 2 hr” value is reported as 192.2 ± 6.2^*1 mmHg; the “Blood pressure, 3 hr” value is listed as 191.2 ± 14.6^*1 mmHg; the “Blood pressure, 4 hr” value was 187.8 ± 11.4^*1 mmHg. Further, in data set [2], the “Blood pressure, 0 hr” value is 216.8 ± 18.0 mmHg. In data set [3], the IC50 stood at 23 µM and the “Radical scavenging activity (in words)” value is listed as “concentration-dependently exhibited a radical scavenging activity”. Besides, in data set [3] (final concentration 1 μM), the “Radical scavenging rate (%)” value stood at 7.8%. Also, in data set [3] (final concentration 10 μM), the “Radical scavenging rate (%)” value is given as 24.9%. For the same compound, the “Radical scavenging rate (%)” value in data set [3] (final concentration 30 μM) is 61.0%. For the same compound, the “Radical scavenging rate (%)” value in data set [3] (final concentration 100 μM) was determined as 99.4%. Also, in data set [3] (final concentration 1000 μM), the “Radical scavenging rate (%)” value stood at 99.8%.

Regarding `COc1ccccc1N1CCN(CC(O)COc2ccc(O)c(C)c2C)CC1.Cl` (stereo not shown) [Example 22, 1-(2,3-Dimethyl-4-hydroxyphenoxy)-3-[4-(2-methoxyphenyl)-1-piperazinyl]propan-2-ol hydrochloride], the melting point was 228 to 230 °C (dec.). Moreover, in data set [2], the “Blood pressure, 1 hr” value was 218.3 ± 11.3^*1 mmHg; the “Blood pressure, 2 hr” value is on record as 231.0 ± 14.5 mmHg; the “Blood pressure, 3 hr” value is recorded as 236.5 ± 9.1 mmHg; the “Blood pressure, 4 hr” value amounted to 241.0 ± 9.8 mmHg. Moreover, the “Blood pressure, 0 hr” value in data set [2] was 247.0 ± 10.7 mmHg.

On to `COc1ccc(N2CCN(CC(O)COc3ccc(O)cc3)CC2)c(OC)c1.Cl.Cl` (stereo not shown), for which the melting point was 213 to 215 °C (dec.).

For `COc1ccc(OC)c(N2CCN(CC(O)COc3ccc(O)cc3)CC2)c1.Cl.Cl` (stereo not shown) [Example 25, 1-(4-Hydroxyphenoxy)-3-[4-(2,5-dimethoxyphenyl)-1-piperazinyl]propan-2-ol dihydrochloride], the melting point fell in the range of 205 to 207 °C. For the same compound, in data set [1], the “Intraocular pressure, 1 hr” value is reported as 26.8 ± 1.92^*2 mmHg; the “Intraocular pressure, 2 hr” value is 25.4 ± 1.82^*2 mmHg; the “Intraocular pressure, 3 hr” value stood at 28.6 ± 6.11 mmHg; the “Intraocular pressure, 4 hr” value came out at 29.6 ± 2.07 mmHg. For the same compound, the “Intraocular pressure, 0 hr” value in data set [1] is 31.6 ± 2.41 mmHg.

On to `COc1ccccc1N1CCN(CC(O)COc2cc(C)c(O)c(C)c2)CC1.Cl.Cl` (stereo not shown) [Example 17, 1-(3,5-Dimethyl-4-hydroxyphenoxy)-3-[4-(2-methoxyphenyl)-1-piperazinyl]propan-2-ol dihydrochloride], for which the melting point was 208 to 210 °C (dec.). In addition, in data set [1], the “Intraocular pressure, 1 hr” value is 25.4 ± 2.79^*1 mmHg; the “Intraocular pressure, 2 hr” value is 25.4 ± 2.88^*1 mmHg; the “Intraocular pressure, 3 hr” value came to 27.0 ± 3.08 mmHg; the “Intraocular pressure, 4 hr” value turned out to be 28.6 ± 4.22 mmHg. In addition, in data set [1], the “Intraocular pressure, 0 hr” value is 30.0 ± 3.08 mmHg. In data set [2], the “Blood pressure, 1 hr” value was 214.8 ± 9.9^*1 mmHg; the “Blood pressure, 2 hr” value is given as 230.8 ± 13.0 mmHg; the “Blood pressure, 3 hr” value was 225.0 ± 13.0 mmHg; the “Blood pressure, 4 hr” value turned out to be 219.5 ± 10.6 mmHg. For the same compound, in data set [2], the “Blood pressure, 0 hr” value turned out to be 247.3 ± 23.2 mmHg.

`COc1ccccc1N1CCN(CC(O)COc2c(C)cc(O)c3ccccc23)CC1.Cl.Cl` (stereo not shown) [Example 4, 1-(2-Methyl-4-hydroxynaphthoxy)-3-[4-(2-methoxyphenyl)-1-piperazinyl]propan-2-ol dihydrochloride]: in data set [1] (0.5% eye drops), the “Intraocular pressure lowering effect (in words)” value was “a potent intraocular pressure lowering effect was observed since one hour after instillation” and the “Time of peak intraocular pressure lowering effect after instillation” value was 2 h. Besides, in data set [1], the “Intraocular pressure, 1 hr” value is 17.3 ± 2.06^*3 mmHg; the “Intraocular pressure, 2 hr” value is recorded as 15.0 ± 3.74^*2 mmHg; the “Intraocular pressure, 3 hr” value was 15.8 ± 2.06^*3 mmHg; the “Intraocular pressure, 4 hr” value was 20.8 ± 2.22^*2 mmHg. For the same compound, the “Intraocular pressure, 0 hr” value in data set [1] was determined as 26.5 ± 1.75 mmHg. Further, in data set [2], the “Blood pressure, 1 hr” value was 201.8 ± 7.7^*3 mmHg; the “Blood pressure, 2 hr” value is listed as 207.8 ± 13.8^*2 mmHg; the “Blood pressure, 3 hr” value is reported as 212.2 ± 3.8^*3 mmHg; the “Blood pressure, 4 hr” value is reported as 212.2 ± 20.8^*1 mmHg. Also, in data set [2], the “Blood pressure, 0 hr” value worked out at 240.0 ± 8.5 mmHg. Besides, in data set [3], the half-inhibitory concentration (IC50) amounted to 42 µM and the “Radical scavenging activity (in words)” value is on record as “concentration-dependently exhibited a radical scavenging activity”. The “Radical scavenging rate (%)” value in data set [3] (final concentration 1 μM) amounted to 6.7%. For the same compound, the “Radical scavenging rate (%)” value in data set [3] (final concentration 10 μM) was 16.6%. Also, the “Radical scavenging rate (%)” value in data set [3] (final concentration 30 μM) came to 37.7%. Moreover, the “Radical scavenging rate (%)” value in data set [3] (final concentration 100 μM) was 75.4%. In data set [3] (final concentration 1000 μM), the “Radical scavenging rate (%)” value worked out at 91.7%.

As for `COc1ccccc1N1CCN(CC(O)COc2ccc(O)c(C(C)(C)C)c2)CC1.Cl` (stereo not shown) [Example 20, 1-(3-tert-Butyl-4-hydroxyphenoxy)-3-[4-(2-methoxyphenyl)-1-piperazinyl]propan-2-ol hydrochloride], the melting point was 170 to 172 °C. In data set [1], the “Intraocular pressure, 1 hr” value is 22.2 ± 2.59^*1 mmHg; the “Intraocular pressure, 2 hr” value was determined as 25.2 ± 0.84 mmHg; the “Intraocular pressure, 3 hr” value amounted to 25.8 ± 2.59 mmHg; the “Intraocular pressure, 4 hr” value was 28.0 ± 1.73 mmHg. In addition, the “Intraocular pressure, 0 hr” value in data set [1] was found to be 28.0 ± 3.81 mmHg. Also, in data set [2], the “Blood pressure, 1 hr” value is 204.8 ± 16.9^*2 mmHg; the “Blood pressure, 2 hr” value is given as 215.0 ± 11.0^*2 mmHg; the “Blood pressure, 3 hr” value is listed as 217.5 ± 15.2^*1 mmHg; the “Blood pressure, 4 hr” value is recorded as 216.3 ± 18.0^*1 mmHg. In data set [2], the “Blood pressure, 0 hr” value amounted to 250.3 ± 14.3 mmHg.

Turning to `COc1ccccc1N1CCN(CC(O)COc2cc(C)c(O)cc2C)CC1.Cl.Cl` (stereo not shown), the melting point was 214 to 215 °C (dec.).

Regarding `COc1ccccc1N1CCN(CC(O)COc2cc(C)c(O)c(C)c2C)CC1` (stereo not shown) [Example 23, 1-(2,3,5-Trimethyl-4-hydroxyphenoxy)-3-[4-(2-methoxyphenyl)-1-piperazinyl]propan-2-ol], the melting point lay within 163 to 165 °C. For the same compound, in data set [1], the “Intraocular pressure, 1 hr” value is reported as 20.8 ± 3.30^*1 mmHg; the “Intraocular pressure, 2 hr” value is on record as 22.8 ± 3.40 mmHg; the “Intraocular pressure, 3 hr” value is reported as 22.5 ± 3.42 mmHg; the “Intraocular pressure, 4 hr” value came to 23.8 ± 3.30 mmHg. Moreover, the “Intraocular pressure, 0 hr” value in data set [1] came to 27.5 ± 3.42 mmHg. For the same compound, in data set [2], the “Blood pressure, 1 hr” value was found to be 193.3 ± 15.4 mmHg; the “Blood pressure, 2 hr” value was found to be 192.0 ± 10.8 mmHg; the “Blood pressure, 3 hr” value was 179.3 ± 7.8^*1 mmHg; the “Blood pressure, 4 hr” value is 192.0 ± 15.1 mmHg. Further, the “Blood pressure, 0 hr” value in data set [2] is given as 204.0 ± 14.4 mmHg.

On to `COc1ccccc1N1CCN(CC(O)COc2ccc(O)cc2C)CC1.Cl.Cl` (stereo not shown), for which the melting point was 192 to 194 °C (dec.).

Take `COc1ccccc1N1CCN(C(Oc2cc(C)c(O)c(OC)c2OC)C(C)O)CC1.Cl` (stereo not shown): the melting point lay in the range of 138 to 140 °C.

In the case of `COc1ccc(OC)c(N2CCN(CC(O)COc3ccc(O)cc3C)CC2)c1.Cl.Cl` (stereo not shown), the melting point was 168 to 170 °C (dec.).

Regarding `COc1ccc(C)cc1N1CCN(CC(O)COc2ccc(O)cc2)CC1.Cl.Cl` (stereo not shown), the melting point is 222 to 224 °C.
